Source: patent US8546395B2, “6-cycloamino-3-(1H-pyrrolo[2,3-b]pyridin-4-yl)imidazo[1,2-b]pyridazine derivatives, preparation thereof and therapeutic use thereof” (Sanofi, priority 2008, dated 2013)

Biological target: T1, casein kinase 1 epsilon (CK1 epsilon) (Homo sapiens, UniProt P49674)
T1 construct: Invitrogen Corporation (as an alternative)
Assay: Filter-plate assay of ATP-33P for CK1 epsilon inhibitors (phosphorylation of casein)
Assay type: biochemical
Conditions: casein substrate, ATP-33P with 10 μM cold ATP, 2 hours at ambient temperature
Procedure: The capacity of the compounds of the invention to inhibit the phosphorylation of casein by casein kinase 1 epsilon and delta may be evaluated according to the procedure described in US 2005/0131012.
Filter-Plate Assay of ATP-^33P for the Screening of CK1 Epsilon Inhibitors:
The effect of the compounds on inhibition of the phosphorylation of casein by the enzyme casein kinase 1 epsilon (CK1 epsilon) is measured, using a casein assay with filtration of ATP-^33P in vitro.
Casein kinase 1 epsilon (0.58 mg/ml) is obtained via fermentation and purification processes performed according to methods that are well known to those skilled in the art, or may also be obtained from Invitrogen Corporation™ (human CK1 epsilon).
The compounds are tested at five different concentrations so as to generate IC50 values, i.e. the concentration at which a compound is capable of inhibiting the enzymatic activity by 50%, or alternatively the percentage of inhibition at a concentration of 10 micromolar.
“U”-bottomed Falcon plates are prepared by placing 5 μL of solutions of the compounds according to the invention at concentrations of 10, 1, 0.1, 0.01 or 0.001 μM in various wells. The solutions of the compounds according to the invention at these various concentrations are prepared by diluting in a test buffer (50 mM Tris, pH 7.5, […], 2 mM DTT and 1 mM EGTA) a stock solution in DMSO at a concentration of 10 mM. Next, 5 μL of dephosphorylated casein are added to a final concentration of 0.2 μg/μL, 20 μl of CK1 epsilon to a final concentration of 3 ng/μl, and 20 μl of ATP-^33P to a final concentration of 0.02 μCi/μl mixed with cold ATP (10 μM final—approximately 2×10^6 CPM per well). The final total test volume per well is equal to 50 μl.
The “U”-bottomed Falcon® test plate mentioned above is vortexed, and then incubated at ambient temperature for 2 hours. After 2 hours, the reaction is stopped by adding an ice-cold solution of 65 μl of ATP (2 mM) prepared in test buffer.
100 μl of the reaction mixture are then transferred from the “U”-bottomed Falcon® plate into Millipore® MAPH filter plates, preimpregnated with 25 μl of ice-cold 100% TCA. […]
The plates are left to dry overnight at ambient temperature. […] The radiation emitted by each well is then measured for 2 minutes in a Packard® Topcount NXT scintillation counter, in which the values of CPM/well are measured.
The percentage inhibition of the capacity of the enzyme to phosphorylate the substrate (casein) is determined for each concentration of compound tested. These inhibition data expressed as percentages are used to calculate the IC50 value for each compound compared with the controls.
The kinetic studies determined the KM value for ATP as being 21 μM in this test system.

T1 sequence (P49674 whole entry): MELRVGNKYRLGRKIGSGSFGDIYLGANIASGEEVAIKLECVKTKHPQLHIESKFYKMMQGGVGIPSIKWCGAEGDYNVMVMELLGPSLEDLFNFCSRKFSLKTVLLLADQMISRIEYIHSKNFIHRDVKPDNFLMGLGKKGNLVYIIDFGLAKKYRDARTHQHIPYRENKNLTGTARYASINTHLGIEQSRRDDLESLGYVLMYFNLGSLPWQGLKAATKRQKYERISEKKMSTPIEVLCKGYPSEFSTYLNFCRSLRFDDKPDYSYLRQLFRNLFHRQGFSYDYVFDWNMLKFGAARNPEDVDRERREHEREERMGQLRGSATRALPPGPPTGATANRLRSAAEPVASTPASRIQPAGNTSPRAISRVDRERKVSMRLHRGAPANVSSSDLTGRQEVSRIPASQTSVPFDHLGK

Q: With `Fc1ccc(-c2nc3ccc(N4CCC(N5CCCC5)CC4)nn3c2-c2ccnc3[nH]ccc23)cc1` [Compound 36, 2-(4-Fluorophenyl)-6-(4-pyrrolidin-1-ylpiperidin-1-yl)-3-(1H-pyrrolo[2,3-b]pyridin-4-yl)imidazo[1,2-b]pyridazine] as the molecule, how does the IC50 read?
A: The IC50 was 5 to 8 nM.
